Measurements: PubChem BioAssay AID1918948 (Molecular Pharmacology Branch, DTP, NCI, 2023)

Tested on: K-562 leukemia growth, % test/control
Test: Anticancer human tumor K-562 cell line growth inhibition;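 note: spheroids exposed to compounds for 7 days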;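 for viability, T/C: 100% = DMSO vehicle wells and lower values mean fewer viable cells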
Details: spheroids with HUVEC and MSC; for IC50: curve of first compound; for viability, T/C: stronger effect = lower value
Outline: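 Complex spheroids of tumor cells with HUVEC and human MSCs, exposed to iadademstat combined with other agents. Each agent tested in half-log steps from near clinical Cmax (else 10 microM top), DMSO ≤0.25%.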

Nc1ncn(C2CC(O)C(CO)O2)c(=O)n1 (stereo not given) + NC1CC1c1ccc(-c2cccc(O)c2)cc1
IC50 (second compound 0.1 µM): > 1000 nM
IC50 (second compound 0.316 µM): > 1000 nM
IC50 (second compound 1 µM): 988 nM
IC50 (second compound 3.16 µM): 772 nM
IC50 (second compound 10 µM): 166 nM
viability, T/C (second compound 0.1 µM, first compound 0.00316 µM): 106%
viability, T/C (second compound 0.1 µM, first compound 0.01 µM): 104%
viability, T/C (second compound 0.1 µM, first compound 0.0316 µM): 99.4%
viability, T/C (second compound 0.1 µM, first compound 0.1 µM): 89.7%
viability, T/C (second compound 0.1 µM, first compound 0.316 µM): 72.8%
viability, T/C (second compound 0.1 µM, first compound 1 µM): 65.1%
viability, T/C (second compound 0.316 µM, first compound 0.00316 µM): 101%
viability, T/C (second compound 0.316 µM, first compound 0.01 µM): 104%
viability, T/C (second compound 0.316 µM, first compound 0.0316 µM): 97.5%
viability, T/C (second compound 0.316 µM, first compound 0.1 µM): 86.1%
viability, T/C (second compound 0.316 µM, first compound 0.316 µM): 67.2%
viability, T/C (second compound 0.316 µM, first compound 1 µM): 55.6%
viability, T/C (second compound 1 µM, first compound 0.00316 µM): 101%
viability, T/C (second compound 1 µM, first compound 0.01 µM): 102%
viability, T/C (second compound 1 µM, first compound 0.0316 µM): 95.9%
viability, T/C (second compound 1 µM, first compound 0.1 µM): 85%
viability, T/C (second compound 1 µM, first compound 0.316 µM): 62.5%
viability, T/C (second compound 1 µM, first compound 1 µM): 50%
viability, T/C (second compound 3.16 µM, first compound 0.00316 µM): 102%
viability, T/C (second compound 3.16 µM, first compound 0.01 µM): 97.9%
viability, T/C (second compound 3.16 µM, first compound 0.0316 µM): 95.9%
viability, T/C (second compound 3.16 µM, first compound 0.1 µM): 80.4%
viability, T/C (second compound 3.16 µM, first compound 0.316 µM): 58.4%
viability, T/C (second compound 3.16 µM, first compound 1 µM): 47.6%
viability, T/C (second compound 10 µM, first compound 0.00316 µM): 96.9%
viability, T/C (second compound 10 µM, first compound 0.01 µM): 89.1%
viability, T/C (second compound 10 µM, first compound 0.0316 µM): 77.4%
viability, T/C (second compound 10 µM, first compound 0.1 µM): 58.7%
viability, T/C (second compound 10 µM, first compound 0.316 µM): 38.8%
viability, T/C (second compound 10 µM, first compound 1 µM): 31.9%
